Where two headings read alike, the source gives them in different places.
Key:
AHR [1] = target: T1, AHR (Mus musculus, UniProt P30561); experiment: In vitro assay 3: antagonism in mouse cell line (AHR transactivation, firefly luciferase reporter, kynurenic acid prestimulated); assay type: cell-based
T1 sequence (P30561 1-848 P471L/N533S/M589L): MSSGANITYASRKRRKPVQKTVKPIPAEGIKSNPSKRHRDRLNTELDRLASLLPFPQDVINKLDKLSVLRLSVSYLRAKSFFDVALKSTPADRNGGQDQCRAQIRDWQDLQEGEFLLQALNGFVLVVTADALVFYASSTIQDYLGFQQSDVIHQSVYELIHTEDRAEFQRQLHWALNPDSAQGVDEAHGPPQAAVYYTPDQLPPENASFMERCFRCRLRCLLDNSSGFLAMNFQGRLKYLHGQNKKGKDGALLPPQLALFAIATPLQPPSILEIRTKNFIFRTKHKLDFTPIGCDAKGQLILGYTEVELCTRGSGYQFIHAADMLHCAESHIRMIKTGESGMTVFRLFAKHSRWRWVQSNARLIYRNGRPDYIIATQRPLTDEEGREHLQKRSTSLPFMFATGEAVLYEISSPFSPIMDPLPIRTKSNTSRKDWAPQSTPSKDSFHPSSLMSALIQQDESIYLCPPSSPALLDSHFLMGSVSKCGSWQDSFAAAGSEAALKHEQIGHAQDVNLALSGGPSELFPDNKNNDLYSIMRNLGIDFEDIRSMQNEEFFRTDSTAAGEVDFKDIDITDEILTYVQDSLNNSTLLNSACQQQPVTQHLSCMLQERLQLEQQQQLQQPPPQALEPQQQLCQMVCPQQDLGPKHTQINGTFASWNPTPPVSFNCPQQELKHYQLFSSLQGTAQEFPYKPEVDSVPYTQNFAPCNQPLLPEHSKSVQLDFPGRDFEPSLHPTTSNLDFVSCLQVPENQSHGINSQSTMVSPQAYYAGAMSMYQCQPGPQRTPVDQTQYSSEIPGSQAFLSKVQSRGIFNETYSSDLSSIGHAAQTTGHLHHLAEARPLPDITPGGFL
In short: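 Mouse cells stably carrying a DRE-driven AHR-inducible firefly luciferase reporter were prestimulated with the endogenous agonist kynurenic acid before compound addition. Luciferase read by SteadyGlo; cells without kynurenic acid served as full-inhibition control, with normalization to positive and negative controls. Repeat tests reported as mean or median.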

AHR [2] = target: T2, AHR (Homo sapiens, UniProt P35869); experiment: In vitro assay 1: antagonism in human cell line (AHR transactivation, firefly luciferase reporter, kynurenic acid prestimulated); assay type: cell-based; details: AHR Antagonism Human IC50 [M]
T2 construct: U87 MG glioblastoma cells (ATCC #HTB-14) endogenously expressing AHR; endogenous in cells; host or cells: U87 MG glioblastoma cells (ATCC #HTB-14)
T2 sequence (P35869 11-848): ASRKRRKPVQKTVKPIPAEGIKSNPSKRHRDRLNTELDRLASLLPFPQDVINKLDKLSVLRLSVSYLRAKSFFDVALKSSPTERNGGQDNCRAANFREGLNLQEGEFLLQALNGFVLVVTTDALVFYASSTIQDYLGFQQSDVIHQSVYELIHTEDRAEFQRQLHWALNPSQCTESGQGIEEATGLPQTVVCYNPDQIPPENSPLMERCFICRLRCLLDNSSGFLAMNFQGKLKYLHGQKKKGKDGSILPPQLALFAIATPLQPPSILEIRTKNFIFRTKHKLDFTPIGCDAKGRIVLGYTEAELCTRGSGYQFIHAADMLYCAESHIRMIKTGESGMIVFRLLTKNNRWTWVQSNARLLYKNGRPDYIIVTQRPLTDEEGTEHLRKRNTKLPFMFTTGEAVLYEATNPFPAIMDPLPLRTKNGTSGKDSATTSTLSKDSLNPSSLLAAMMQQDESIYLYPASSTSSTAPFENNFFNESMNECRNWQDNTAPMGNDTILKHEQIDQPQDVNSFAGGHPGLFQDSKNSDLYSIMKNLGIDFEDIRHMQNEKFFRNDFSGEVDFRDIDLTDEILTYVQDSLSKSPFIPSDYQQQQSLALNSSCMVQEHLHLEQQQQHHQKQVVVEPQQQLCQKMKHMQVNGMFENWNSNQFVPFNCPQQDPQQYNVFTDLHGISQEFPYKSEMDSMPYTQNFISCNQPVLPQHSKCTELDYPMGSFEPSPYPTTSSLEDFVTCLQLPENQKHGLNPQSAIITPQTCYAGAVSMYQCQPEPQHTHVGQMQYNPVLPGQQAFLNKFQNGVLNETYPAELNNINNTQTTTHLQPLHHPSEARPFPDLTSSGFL
In short: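 U87 MG + DRE-firefly/constitutive-Renilla stable reporters; kynurenic acid prestim; dual-luc read; Renilla = tox; normalized vs pos/neg controls (pos: 150 μM KYNA + 5 μM staurosporine).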

[3] = mouse Hepa 1c1c7 cells, 200 μM kynurenic acid, 20 hours, read-out: AHR Antagonism Mouse IC50
[4] = Hepa 1c1c7 cells, 200 μM kynurenic acid, 20 hours, firefly luciferase reporter, read-out: AHR Antagonism Mouse IC50
[5] = read-out: AHR Antagonism Mouse IC50, mouse Hepa 1c1c7 cells, 200 μM kynurenic acid, 20 hours

Question: For `CN(C)c1cccc(-c2nc3c4ccccc4nc(N[C@@H]4CNCCNC4=O)n3n2)c1` [Example 408, (6R)-6-({2-[3-(dimethylamino)phenyl][1,2,4]triazolo[1,5-c]quinazolin-5-yl}amino)-1,4-diazepan-5-one], which IC50 (AHR [1]; [3]) is on record?
Answer: 13.6 nM

Question: What about the IC50 (AHR [2]) of the same compound?
Answer: 1.85e-07 M

Question: With `Cc1ccccc1-c1nc2c3ccccc3nc(NC3CNCCNC3=O)n2n1` (centres unmarked) [Example 45, 6-{[2-(2-methylphenyl)[1,2,4]triazolo[1,5-c]quinazolin-5-yl]amino}-1,4-diazepan-5-one] as the compound, how does the IC50 (AHR [1]; [3]) read?
Answer: 14.5 nM

Question: What about the IC50 (AHR [2]) of the same compound?
Answer: 1.19e-08 M

Question: With `CC[C@H](Nc1nc2c(Br)cccc2c2nc(-c3cnn(C)c3)nn12)C(N)=O` [Example 694, (2S)-2-{[7-bromo-2-(1-methyl-1H-pyrazol-4-yl)[1,2,4]triazolo[1,5-c]quinazolin-5-yl]amino}butanamide] as the compound, how does the IC50 (AHR [1]; [3]) read?
Answer: 719 nM

Question: And the IC50 (AHR [2])?
Answer: 1.55e-07 M

Question: Which results are given for `Cn1cc(-c2nc3c4cccc(F)c4nc(N[C@@H]4CNCCNC4=O)n3n2)cn1` [Example 428]?
Answer: IC50 (AHR [1]; [3]): 561 nM; IC50 (AHR [2]): 2.44e-06 M

Question: For `COc1ccc(-c2nc3c4cccc(Br)c4nc(N[C@H](C)C(=O)N4CCO[C@H](C)C4)n3n2)cc1` [Example 907, (2R)-2-{[7-bromo-2-(4-methoxyphenyl)[1,2,4]triazolo[1,5-c]quinazolin-5-yl]amino}-1-[(2R)-2-methylmorpholin-4-yl]propan-1-one], which IC50 (AHR [1]; [4]) is on record?
Answer: 1.39 nM

Question: And the IC50 (AHR [2]; firefly luciferase reporter)?
Answer: 9.93e-10 M

Question: Which results are given for `CCCCNC(=O)CNc1nc2ccccc2c2nc(-c3ccc(S(C)(=O)=O)cc3)nn12` [Example 438, N-butyl-N^2-{2-[4-(methanesulfonyl)phenyl][1,2,4]triazolo[1,5-c]quinazolin-5-yl}glycinamide]?
Answer: IC50 (AHR [1]; [3]): 130 nM; IC50 (AHR [2]): 2.9e-07 M

Question: What does the source list for `COc1cccc(-c2nc3c4ccccc4nc(N[C@H](Cc4ccccc4)C(N)=O)n3n2)c1` [Example 90, N^2-[2-(3-methoxyphenyl)[1,2,4]triazolo[1,5-c]quinazolin-5-yl]-D-phenylalaninamide]?
Answer: IC50 (AHR [1]; [3]): 6.34 nM; IC50 (AHR [2]): 4.54e-09 M

Question: With `CCn1cc(-c2nc3c4cccc(S(C)(=O)=O)c4nc(N[C@@H]4CNCCNC4=O)n3n2)c(C)n1` [Example 945, (6R)-6-{[2-(1-ethyl-3-methyl-1H-pyrazol-4-yl)-7-(methanesulfonyl)[1,2,4]triazolo[1,5-c]quinazolin-5-yl]amino}-1,4-diazepan-5-one] as the compound, how does the IC50 (AHR [1]; [4]) read?
Answer: 2080 nM

Question: And the IC50 (AHR [2]; firefly luciferase reporter)?
Answer: 4.79e-07 M

Question: What does the source list for `CS(=O)(=O)c1ccc(-c2nc3c4ccccc4nc(N[C@@H]4CNCCNC4=O)n3n2)cc1` [Example 714, (6R)-6-({2-[4-(methanesulfonyl)phenyl][1,2,4]triazolo[1,5-c]quinazolin-5-yl}amino)-1,4-diazepan-5-one]?
Answer: IC50 (AHR [1]; [3]): 134 nM; IC50 (AHR [2]): 1.64e-07 M

Question: Which results are given for `COc1ccc(-c2nc3c4cccc(N5CCOCC5)c4nc(N[C@@H]4CCCCNC4=O)n3n2)cc1` [Example 654, (3R)-3-{[2-(4-methoxyphenyl)-7-(morpholin-4-yl)[1,2,4]triazolo[1,5-c]quinazolin-5-yl]amino}azepan-2-one]?
Answer: IC50 (AHR [1]; [3]): 221 nM; IC50 (AHR [2]): 1.03e-07 M

Question: Which results are given for `CS(=O)(=O)c1ccc(-c2nc3c4cccc(Br)c4nc(N[C@H]4CCCCNC4=O)n3n2)cc1` [Example 680, (3S)-3-({7-bromo-2-[4-(methanesulfonyl)phenyl][1,2,4]triazolo[1,5-c]quinazolin-5-yl}amino)azepan-2-one]?
Answer: IC50 (AHR [1]; [5]): 35.6 nM; IC50 (AHR [2]): 3.93e-08 M

Question: With `CC(C)[C@@H](Nc1nc2c(Br)cccc2c2nc(-c3cnn(C)c3)nn12)C(=O)NCCN1CCN(C)CC1` [Example 927, N^2-[7-bromo-2-(1-methyl-1H-pyrazol-4-yl)[1,2,4]triazolo[1,5-c]quinazolin-5-yl]-N-[2-(4-methylpiperazin-1-yl)ethyl]-D-valinamide] as the compound, how does the IC50 (AHR [1]; [4]) read?
Answer: 34.4 nM

Question: And the IC50 (AHR [2]; firefly luciferase reporter)?
Answer: 6.5e-08 M

Question: `Cc1nn(C)cc1-c1nc2c3cccc(C(F)(F)F)c3nc(N[C@H]3CNCCNC3=O)n2n1` [Example 948] was tested. Which IC50 (AHR [1]; [4]) did it give?
Answer: 49.6 nM

Question: What about the IC50 (AHR [2]; firefly luciferase reporter) of the same compound?
Answer: 2.08e-08 M

Question: What does the source list for `Cc1ccccc1-c1nc2c3ccccc3nc(N[C@H]3CCCCNC3=O)n2n1` [Example 41, (3S)-3-{[2-(2-methylphenyl)[1,2,4]triazolo[1,5-c]quinazolin-5-yl]amino}azepan-2-one]?
Answer: IC50 (AHR [1]; [5]): 1.7 nM; IC50 (AHR [2]): 2.12e-08 M

Question: For `Cc1cc(-c2nc3c4cccc(C(F)(F)F)c4nc(N[C@@H]4CCCCNC4=O)n3n2)n(C)n1` [Example 740, (3R)-3-{[2-(1,3-dimethyl-1H-pyrazol-5-yl)-7-(trifluoromethyl)[1,2,4]triazolo[1,5-c]quinazolin-5-yl]amino}azepan-2-one], which IC50 (AHR [1]; [3]) is on record?
Answer: 1.65 nM

Question: What about the IC50 (AHR [2]) of the same compound?
Answer: 1.22e-09 M

Question: What does the source list for `O=C1NCCCC[C@H]1Nc1nc2c(C(F)(F)F)cccc2c2nc(-c3ccc(Cl)cc3OC(F)F)nn12` [Example 673, (3R)-3-({2-[4-chloro-2-(difluoromethoxy)phenyl]-7-(trifluoromethyl)[1,2,4]triazolo[1,5-c]quinazolin-5-yl}amino)azepan-2-one]?
Answer: IC50 (AHR [1]; [3]): 1.57 nM; IC50 (AHR [2]): > 2e-05 M

Question: Which results are given for `CN(C)CCn1cc(-c2nc3c4ccccc4nc(N[C@@H]4CCCCNC4=O)n3n2)cn1` [Example 599, (3R)-3-[(2-{1-[2-(dimethylamino)ethyl]-1H-pyrazol-4-yl}[1,2,4]triazolo[1,5-c]quinazolin-5-yl)amino]azepan-2-one]?
Answer: IC50 (AHR [1]; [3]): 2120 nM; IC50 (AHR [2]): 5.81e-07 M

Question: With `COc1ccc(-c2nc3c4cccc(Br)c4nc(N[C@H](C)C(=O)N4CCN(C)[C@H](C)C4)n3n2)cc1` [Example 913, (2R)-2-{[7-bromo-2-(4-methoxyphenyl)[1,2,4]triazolo[1,5-c]quinazolin-5-yl]amino}-1-[(3R)-3,4-dimethylpiperazin-1-yl]propan-1-one] as the compound, how does the IC50 (AHR [1]; [4]) read?
Answer: 1.71 nM

Question: What about the IC50 (AHR [2]; firefly luciferase reporter) of the same compound?
Answer: 1.32e-09 M

Question: What does the source list for `O=C1NCCCC[C@H]1Nc1nc2ccccc2c2nc(-c3ccc(O)c(F)c3)nn12` [Example 629, (3R)-3-{[2-(3-fluoro-4-hydroxyphenyl)[1,2,4]triazolo[1,5-c]quinazolin-5-yl]amino}azepan-2-one]?
Answer: IC50 (AHR [1]; [3]): 190 nM; IC50 (AHR [2]): 4.88e-08 M

Question: `Cn1cc(-c2nc3c4ccccc4nc(NC4CCCNC4=O)n3n2)cn1` (centres unmarked) [Example 13, 3-{[2-(1-methyl-1H-pyrazol-4-yl)[1,2,4]triazolo[1,5-c]quinazolin-5-yl]amino}piperidin-2-one] was tested. Which IC50 (AHR [1]; [3]) did it give?
Answer: 7260 nM

Question: What about the IC50 (AHR [2]) of the same compound?
Answer: 1.21e-06 M

Question: With `N#Cc1ccc(-c2nc3c4ccccc4nc(N[C@@H]4CCCNC4=O)n3n2)cc1` [Example 389, 4-(5-{[(3R)-2-oxopiperidin-3-yl]amino}[1,2,4]triazolo[1,5-c]quinazolin-2-yl)benzonitrile] as the compound, how does the IC50 (AHR [1]; [3]) read?
Answer: 26.7 nM

Question: And the IC50 (AHR [2])?
Answer: 1.76e-08 M

Question: What does the source list for `CCCNC(=O)[C@@H](CC)Nc1nc2c(Br)cccc2c2nc(-c3ccc(Cl)cc3OC(F)F)nn12` [Example 797, (2R)-2-({7-bromo-2-[4-chloro-2-(difluoromethoxy)phenyl][1,2,4]triazolo[1,5-c]quinazolin-5-yl}amino)-N-propylbutanamide]?
Answer: IC50 (AHR [1]; [4]): 0.963 nM; IC50 (AHR [2]; firefly luciferase reporter): 1.58e-09 M

From US20230113037A1 (Bayer Aktiengesellschaft, priority 2019, published 2023)
